This experiment addresses T1, SIRT1 (Homo sapiens, UniProt Q96EB6).
T1 sequence (Q96EB6 1-747): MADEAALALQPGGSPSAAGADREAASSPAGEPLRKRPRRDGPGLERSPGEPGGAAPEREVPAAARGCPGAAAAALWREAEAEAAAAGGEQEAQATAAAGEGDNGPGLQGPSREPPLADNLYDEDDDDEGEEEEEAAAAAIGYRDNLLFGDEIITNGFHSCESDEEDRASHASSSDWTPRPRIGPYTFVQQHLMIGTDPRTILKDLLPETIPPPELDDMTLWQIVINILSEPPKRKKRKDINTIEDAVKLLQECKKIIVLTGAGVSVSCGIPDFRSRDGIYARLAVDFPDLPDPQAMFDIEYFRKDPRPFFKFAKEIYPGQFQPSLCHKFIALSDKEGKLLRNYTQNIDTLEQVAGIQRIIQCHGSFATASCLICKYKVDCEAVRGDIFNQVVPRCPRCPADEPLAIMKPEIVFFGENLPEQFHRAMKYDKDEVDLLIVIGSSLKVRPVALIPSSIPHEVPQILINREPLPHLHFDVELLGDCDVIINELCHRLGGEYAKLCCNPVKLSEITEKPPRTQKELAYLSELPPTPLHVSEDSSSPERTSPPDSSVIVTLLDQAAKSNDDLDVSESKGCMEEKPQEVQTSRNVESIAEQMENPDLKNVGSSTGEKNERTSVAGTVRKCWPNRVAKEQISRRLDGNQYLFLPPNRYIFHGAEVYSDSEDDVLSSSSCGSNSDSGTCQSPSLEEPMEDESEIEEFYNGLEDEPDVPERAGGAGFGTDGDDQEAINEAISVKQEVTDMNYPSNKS
Kind of experiment: Mass spectrometry based SIRT1 deacetylase activation assay (acetylated p53-derived peptide substrate). Type of experiment: biochemical.

The mark [1] stands for this setting: 0.5 μM peptide substrate, 120 μM βNAD+, 10 nM SIRT1, 25 minutes at 25° C.
Where [2] appears, read: 0.5 μM peptide substrate, 120 μM βNAD+, 10 nM SIRT1, 25 min at 25° C.
Where [3] appears, read: 0.5 μM peptide substrate, 120 μM βNAD+, 10 nM SIRT1, 25 min at 25° C., read-out: EC1.5.

Structures can show the parent of a compound that is named as a salt. Where two headings read alike, the source gives them in different places.

For the compound `O=C(Nc1nccs1)c1cccc2[nH]c(-c3ccc(N4CCNCC4)nc3)nc12` [Compound 251, 2-(6-(piperazin-1-yl)pyridin-3-yl)-N-(thiazol-2-yl)-1H-benzo[d]imidazole-4-carboxamide hydrochloride], the EC1.5 entry is “A (EC1.5<1.0 uM)” and the “Fold Act. (percent maximum fold activation)” value was “A (Fold activation >200%)”.
The matching figures for `O=C(Nc1cnccn1)c1cccc2[nH]c(-c3cccc(N4CCOCC4)c3)nc12` [Compound 297]: “A (EC1.5<1.0 uM)” and “A (Fold activation >200%)”.
Take `Cc1nc(-c2ccccc2)c(-c2nc3c(C(=O)Nc4cccnc4)cccc3[nH]2)s1` [Compound 370]: the EC1.5 entry is reported as “A (EC1.5<1.0 uM)” and the “Fold Act. (percent maximum fold activation)” value is listed as “A (Fold activation >200%)”.
In the case of `O=C(Nc1cccc(OC2CCNCC2)c1)c1cccc2[nH]c(-c3ccc(Cl)cc3C(F)(F)F)nc12` [Compound 598], under setting [1], the EC1.5 entry is recorded as “A (EC1.5<1.0 uM)” and the “Fold Act. (percent maximum fold activation)” value was “A (Fold activation >200%)”.
In the case of `O=C(Nc1cccc(OCC(O)CO)c1)c1cccc2[nH]c(-c3ccc(F)cc3C(F)(F)F)nc12` (centres unmarked) [Compound 679], under setting [1], the EC1.5 result is given as “A (EC1.5<1.0 uM)” and the “Fold Act. (percent maximum fold activation)” value is recorded as “A (Fold activation >200%)”.
The matching figures for `O=C(Nc1cccc(CN2CCOCC2)n1)c1cccc2[nH]c(-c3ccccc3F)nc12` [Compound 854]: “A (EC1.5<1.0 uM)” and “A (Fold activation >200%)”.
In the case of `O=C(Nc1cc[n+]([O-])cc1)c1cccc2[nH]c(-c3ccc(Cl)cc3C(F)(F)F)nc12` [Compound 338], the EC1.5 entry is listed as “A (EC1.5<1.0 uM)” and the “Fold Act. (percent maximum fold activation)” value is listed as “A (Fold activation >200%)”.
As to `O=C(Nc1cccnn1)c1cccc2[nH]c(-c3cccc(N4CCOCC4)c3)nc12` [Compound 470], under setting [2], the “Fold Act. (percent maximum fold activation)” value is recorded as “A (Fold activation >200%)”. Besides, under setting [3], the EC1.5 lay within 1000 to 25000 nM.
`O=C(Nc1cccnn1)c1cncc2[nH]c(-c3ccc(Cl)cc3C(F)(F)F)nc12` [Compound 651]: under setting [1], the EC1.5 entry is reported as “A (EC1.5<1.0 uM)” and the “Fold Act. (percent maximum fold activation)” value is “A (Fold activation >200%)”.
Consider `Cc1cc(NC(=O)c2cccc3[nH]c(-c4cccc(C(F)(F)F)c4)nc23)sn1` [Compound 306], for which the EC1.5 result is “B (EC1.5 1-25 uM)” and the “Fold Act. (percent maximum fold activation)” value was “B (Fold Activation <200%)”.
Regarding `Cc1cc(-c2nc3c(C(=O)Nc4cccc(CN5CCOCC5)n4)cccc3[nH]2)ccn1` [Compound 816, 2-(2-methylpyridin-4-yl)-N-(6-(morpholinomethyl)pyridin-2-yl)-1H-benzo[d]imidazole-4-carboxamide], under setting [1], the EC1.5 result was “A (EC1.5<1.0 uM)” and the “Fold Act. (percent maximum fold activation)” value is reported as “A (Fold activation >200%)”.
Regarding `O=C(Nc1cccnn1)c1cncc2[nH]c(-c3cc(F)ccc3C(F)(F)F)nc12` [Compound 656], under setting [1], the EC1.5 entry is “A (EC1.5<1.0 uM)” and the “Fold Act. (percent maximum fold activation)” value is listed as “A (Fold activation >200%)”.
As for `O=C(Nc1nccs1)c1cccc2[nH]c(-c3ccc(N4CC[C@H](F)C4)cc3C(F)(F)F)nc12` [Compound 606], under setting [1], the EC1.5 entry is recorded as “A (EC1.5<1.0 uM)” and the “Fold Act. (percent maximum fold activation)” value is recorded as “A (Fold activation >200%)”.
As for `O=C(Nc1cccc[n+]1[O-])c1cccc2[nH]c(-c3ccc(Cl)cc3C(F)(F)F)nc12` [Compound 330], the EC1.5 result is “B (EC1.5 1-25 uM)” and the “Fold Act. (percent maximum fold activation)” value was “A (Fold activation >200%)”.
The matching figures for `O=C(Nc1cccc2[nH]c(-c3ccnn3-c3ccccc3)nc12)c1cscn1` [Compound 392]: “B (EC1.5 1-25 uM)” and “A (Fold activation >200%)”.
As for `O=C(Nc1ccc(OC[C@H](O)CO)cc1)c1cccc2[nH]c(-c3cccc(N4CCCC4)c3)nc12` [Compound 778], under setting [1], the EC1.5 entry is reported as “A (EC1.5<1.0 uM)” and the “Fold Act. (percent maximum fold activation)” value is recorded as “A (Fold activation >200%)”.
As to `O=C(NC1CCOC1=O)c1cccc2[nH]c(-c3ccc(F)cc3C(F)(F)F)nc12` (centres unmarked) [Compound 374], the EC1.5 result was “C (EC1.5 >25 uM)” and the “Fold Act. (percent maximum fold activation)” value is listed as “B (Fold Activation <200%)”.
The matching figures for `Cc1noc(C)c1NC(=O)c1cccc2[nH]c(-c3cccc(C(F)(F)F)c3)nc12` [Compound 261]: “C (EC1.5 >25 uM)” and “B (Fold Activation <200%)”.
Consider `CCCN1CCCc2ccc(-c3nc4c(C(=O)Nc5nccs5)cccc4[nH]3)cc21` [Compound 425], for which, under setting [2], the “Fold Act. (percent maximum fold activation)” value was “A (Fold activation >200%)”. Also, under setting [3], the EC1.5 fell in the range of 1000 to 25000 nM.
As for `Cc1cnc(NC(=O)c2cccc3[nH]c(-c4ccc(F)cc4C(F)(F)F)nc23)s1` [Compound 357], the EC1.5 entry is “A (EC1.5<1.0 uM)” and the “Fold Act. (percent maximum fold activation)” value is “A (Fold activation >200%)”.
On to `Cc1cccc(-c2nc3c(C(=O)Nc4ccccn4)cccc3[nH]2)c1OCCN1CCOCC1` [Compound 627], for which, under setting [1], the EC1.5 result is recorded as “B (EC1.5 1-25 uM)” and the “Fold Act. (percent maximum fold activation)” value is on record as “A (Fold activation >200%)”.
Regarding `O=C(Nc1ccccn1)c1cccc2[nH]c(-c3ccccc3OCCN3CC[C@@H](F)C3)nc12` [Compound 508], the “Fold Act. (percent maximum fold activation)” value under setting [2] is “A (Fold activation >200%)”. In addition, the EC1.5 under setting [3] lay in the range of 1000 to 25000 nM.
As to `O=C(Nc1cccnc1)c1cc(N2CCOCC2)cc2[nH]c(-c3ccccc3C(F)F)nc12` [Compound 735], under setting [1], the EC1.5 entry is given as “A (EC1.5<1.0 uM)” and the “Fold Act. (percent maximum fold activation)” value is given as “A (Fold activation >200%)”.
The matching figures for `O=C(Nc1ccccn1)c1cccc2[nH]c(-c3cc(CN4CCCC4)ccc3C(F)(F)F)nc12` [Compound 872, N-(pyridin-2-yl)-2-(5-(pyrrolidin-1-ylmethyl)-2-(trifluoromethyl)phenyl)-1H-benzo[d]imidazole-4-carboxamide]: “A (EC1.5<1.0 uM)” and “A (Fold activation >200%)”.
The matching figures for `Cc1cnc(NC(=O)c2cc(F)cc3nc(-c4ccccc4C(F)F)[nH]c23)s1` [Compound 833]: “A (EC1.5<1.0 uM)” and “A (Fold activation >200%)”.
The matching figures for `O=C(Nc1cccc(CN2CCOCC2)n1)c1cccc2[nH]c(-c3cccnc3)nc12` [Compound 850]: “A (EC1.5<1.0 uM)” and “A (Fold activation >200%)”.
With `O=C(Nc1nccs1)c1cccc2[nH]c(-c3cccc(OC4CCNCC4)c3)nc12` [Compound 426], the “Fold Act. (percent maximum fold activation)” value under setting [2] was “A (Fold activation >200%)”. Further, the EC1.5 under setting [3] is less than 1000 nM.
`O=C(NCc1ccccn1)c1cccc2[nH]c(-c3ccc(F)cc3C(F)(F)F)nc12` [Compound 435]: under setting [2], the “Fold Act. (percent maximum fold activation)” value was “B (Fold Activation <200%)”. The EC1.5 under setting [3] fell in the range of 1000 to 25000 nM.
Take `O=C(Nc1ccc(OC[C@@H](O)CO)cc1)c1cccc2[nH]c(-c3cccnc3)nc12` [Compound 753]: under setting [1], the EC1.5 result was “A (EC1.5<1.0 uM)” and the “Fold Act. (percent maximum fold activation)” value is “A (Fold activation >200%)”.
In the case of `O=C(Nc1cccnn1)c1cccc2[nH]c(-c3ccc(N4CCOCC4)cc3C(F)(F)F)nc12` [Compound 550], the “Fold Act. (percent maximum fold activation)” value under setting [2] was “A (Fold activation >200%)”. Moreover, the EC1.5 under setting [3] was less than 1000 nM.
Consider `O=C(Nc1cccc2[nH]c(-c3ccc(Cl)cc3C(F)(F)F)nc12)c1cccnc1` [Compound 418], for which, under setting [2], the “Fold Act. (percent maximum fold activation)” value was “A (Fold activation >200%)”. In addition, under setting [3], the EC1.5 is 1000 to 25000 nM.
`O=C(Nc1cccnc1)c1cccc2[nH]c(-c3ccc(-c4nnn[nH]4)cc3)nc12` [Compound 349]: the EC1.5 entry is “A (EC1.5<1.0 uM)” and the “Fold Act. (percent maximum fold activation)” value is reported as “B (Fold Activation <200%)”.
As to `Cc1cc(NC(=O)c2cccc3[nH]c(-c4ccnn4-c4ccccc4)nc23)n(C)n1` [Compound 423], the “Fold Act. (percent maximum fold activation)” value under setting [2] is on record as “A (Fold activation >200%)”. Besides, the EC1.5 under setting [3] lay in the range of 1000 to 25000 nM.
In the case of `O=C(Nc1nccs1)c1cccc2[nH]c(-c3ccnc(N4CCOCC4)c3)nc12` [Compound 269], the EC1.5 result is reported as “A (EC1.5<1.0 uM)” and the “Fold Act. (percent maximum fold activation)” value is “A (Fold activation >200%)”.
In the case of `O=C(Nc1nccs1)c1cccc2[nH]c(-c3cc(Cl)ccc3C(F)(F)F)nc12` [Compound 258], the EC1.5 entry is “B (EC1.5 1-25 uM)” and the “Fold Act. (percent maximum fold activation)” value is given as “A (Fold activation >200%)”.
Take `O=C(Nc1cccc(OC[C@@H](O)CO)c1)c1cccc2[nH]c(-c3ccc(Cl)cc3C(F)F)nc12` [Compound 699]: under setting [1], the EC1.5 result is given as “A (EC1.5<1.0 uM)” and the “Fold Act. (percent maximum fold activation)” value is listed as “A (Fold activation >200%)”.
Take `CS(=O)(=O)c1cc(Cl)ccc1-c1nc2c(C(=O)Nc3cccnc3)cccc2[nH]1` [Compound 521]: the “Fold Act. (percent maximum fold activation)” value under setting [2] is listed as “A (Fold activation >200%)”. Further, the EC1.5 under setting [3] lay within 1000 to 25000 nM.

The values are drawn from US8846947B2, “Benzimidazoles and related analogs as sirtuin modulators” (GlaxoSmithKline LLC, priority 2008, dated 2014).
